How the values were obtained:
[1] = Selectivity index, ratio of CC50 for human MT4 cells to EC50 for antiviral activity against NNRTI resistant HIV-1 infected in human MT4 cells; type: toxicity, cell-based; conditions: read-out: Ratio CC50/EC50
[2] = tested on: Human immunodeficiency virus 1; experiment: Antiviral activity against drug-resistant HIV-1 Y188L mutant infected in human MT4 cells assessed as reduction in virus-induced cytopathic effect incubated for 5 days by MTT assay; type: functional, organism-based; conditions: Human immunodeficiency virus 1, Y188L mutant, MT4, 120 h
[3] = tested on: Human immunodeficiency virus 1; experiment: Antiviral activity against drug-resistant HIV-1 L100I mutant infected in human MT4 cells assessed as reduction in virus-induced cytopathic effect incubated for 5 days by MTT assay; type: functional, organism-based; conditions: Human immunodeficiency virus 1, L100I mutant, MT4, 120 h
[4] = Fold resistance, ratio of EC50 for antiviral activity against drug-resistant HIV-1 Y181C mutant infected in human MT4 cells to EC50 for antiviral activity against […] HIV-1 infected in human MT4 cells; type: functional
[5] = tested on: Human immunodeficiency virus 1; experiment: Antiviral activity against […] HIV-1 infected in human MT4 cells assessed as reduction in virus-induced cytopathic effect incubated for 5 days by MTT assay; type: functional, organism-based; conditions: Human immunodeficiency virus 1, MT4, 120 h
[6] = tested on: Human immunodeficiency virus 1; experiment: Antiviral activity against drug-resistant HIV-1 K103 N mutant infected in human MT4 cells assessed as reduction in virus-induced cytopathic effect incubated for 5 days by MTT assay; type: functional, organism-based; conditions: Human immunodeficiency virus 1, K103 N mutant, MT4, 120 h
[7] = tested on: Human immunodeficiency virus 1; experiment: Antiviral activity against drug-resistant HIV-1 Y181C mutant infected in human MT4 cells assessed as reduction in virus-induced cytopathic effect incubated for 5 days by MTT assay; type: functional, organism-based; conditions: Human immunodeficiency virus 1, Y181C mutant, MT4, 120 h
[8] = Fold resistance, ratio of EC50 for antiviral activity against drug-resistant HIV-1 K103 N mutant infected in human MT4 cells to EC50 for antiviral activity against […] HIV-1 infected in human MT4 cells; type: functional
[9] = Fold resistance, ratio of EC50 for antiviral activity against drug-resistant HIV-1 E138K mutant infected in human MT4 cells to EC50 for antiviral activity against […] HIV-1 infected in human MT4 cells; type: functional
[10] = Cytotoxicity against human MT4 cells assessed as cell growth inhibition incubated for 5 days by MTT assay; type: toxicity, cell-based; conditions: time 5 day
[11] = tested on: Human immunodeficiency virus 1; experiment: Antiviral activity against drug-resistant HIV-1 E138K mutant infected in human MT4 cells assessed as reduction in virus-induced cytopathic effect incubated for 5 days by MTT assay; type: functional, organism-based; conditions: Human immunodeficiency virus 1, E138K mutant, MT4, 120 h
[12] = Fold resistance, ratio of EC50 for antiviral activity against drug-resistant HIV-1 Y188L mutant infected in human MT4 cells to EC50 for antiviral activity against […] HIV-1 infected in human MT4 cells; type: functional
[13] = Fold resistance, ratio of EC50 for antiviral activity against drug-resistant HIV-1 L100I mutant infected in human MT4 cells to EC50 for antiviral activity against […] HIV-1 infected in human MT4 cells; type: functional
[14] = target: Human immunodeficiency virus type 1 reverse transcriptase (Human immunodeficiency virus 1, UniProt Q72547); experiment: Inhibition of recombinant wild-type p66/p51 HIV-1 reverse transcriptase incubated for 40 mins by picogreen dye-based spectrofluorometric analysis

| Compound | selectivity ratio [1] | EC50 [2] [µM] | EC50 [3] [µM] | Ratio EC50 [4] | EC50 [5] [µM] | EC50 [6] [µM] | EC50 [7] [µM] | Ratio EC50 [8] | Ratio EC50 [9] | CC50 at 120 h [10] [µM] | EC50 [11] [µM] | Ratio EC50 [12] | Ratio EC50 [13] | IC50 [14] [µM] |
| --- | --- | --- | --- | --- | --- | --- | --- | --- | --- | --- | --- | --- | --- | --- |
| Cc1c(C(C#N)c2c(F)cccc2Cl)nc(SC(C)C)[nH]c1=O (stereo unspecified) | 4050 | > 58.7 | 1.06 | 76 | 0.0184 | 3.3 | 1.4 | 179 | 5 | 74.7 | 0.09 | 3191 | 58 | 0.074 |
| Cc1c(C(C#N)c2cccc3c2OCO3)nc(SC(C)C)[nH]c1=O (stereo unspecified) | 213 | > 96.5 | 10 | 113 | 0.45 | > 96.5 | 50.7 | >214 | 4 | 96.5 | 1.94 | >214 | 22 | 1.35 |
| COc1cc(F)cc(C(C#N)c2nc(SC(C)C)[nH]c(=O)c2C)c1 (stereo unspecified) | 1310 | 54.4 | 3.94 | 43 | 0.123 | 23.1 | 5.23 | 188 | 3 | 161 | 0.35 | 442 | 32 | 0.236 |
| COc1ccccc1C(C#N)c1nc(SC(C)C)[nH]c(=O)c1C (stereo unspecified) | > 9380 | 27.5 | 0.4 | 48 | 0.04 | 3.51 | 1.91 | 88 | 2 | > 379 | 0.09 | 687 | 10 | 0.158 |
| COc1cccc(C(C#N)c2nc(SC(C)C)[nH]c(=O)c2C)c1 (stereo unspecified) | 1280 | 62 | 2.78 | 42 | 0.138 | 28.2 | 5.82 | 205 | 3 | 176 | 0.36 | 450 | 20 | 1.06 |
| COc1ccc(C(C#N)c2nc(SC(C)C)[nH]c(=O)c2C)cc1 (stereo unspecified) | 13 | > 37.1 | 9.7 | >13 | 2.92 | > 37.1 | > 37.1 | >13 | 1 | 37.1 | 4.29 | >13 | 3 | 20.7 |
| Cc1c(C(C#N)c2ccccc2Br)nc(SC(C)C)[nH]c1=O (stereo unspecified) | 676 | 54 | 2 | 46 | 0.115 | 28.2 | 5.28 | 246 | 2 | 77.6 | 0.2 | 469 | 17 | 0.198 |
| Cc1cccc(C)c1C(C#N)c1nc(SC(C)C)[nH]c(=O)c1C (stereo unspecified) | 73 | > 68.1 | > 68.1 | >73 | 0.93 | > 68.1 | > 68.1 | >73 | 4 | 68.1 | 3.48 | >73 | >73 | 6.59 |
| Cc1c(C(C#N)c2ccc(Cl)nc2)nc(SC(C)C)[nH]c1=O (stereo unspecified) | 10 | > 216 | 32.3 | 2 | 20.6 | 41.3 | 41.3 | 2 | 1 | 216 | 28.6 | >10 | 2 | 203 |
| Cc1c(C(C#N)c2cccc(F)c2)nc(SC(C)C)[nH]c1=O (stereo unspecified) | 754 | > 202 | 13.5 | 26 | 0.268 | 65.6 | 6.89 | 245 | 4 | 202 | 0.96 | >753 | 50 | 0.829 |
| Cc1c(C(C#N)c2ccc(C(F)(F)F)cc2)nc(SC(C)C)[nH]c1=O (stereo unspecified) | 8 | > 39.8 | > 39.8 | >8 | 5.3 | > 39.8 | > 39.8 | >8 | 2 | 39.8 | 9.11 | >8 | >8 | 13.3 |
| Cc1cccc(C(C#N)c2nc(SC(C)C)[nH]c(=O)c2C)c1 (stereo unspecified) | 1180 | 65.4 | 2.06 | 31 | 0.141 | 20.9 | 4.41 | 148 | 3 | 167 | 0.37 | 464 | 15 | 0.271 |
| Cc1ccccc1C(C#N)c1nc(SC(C)C)[nH]c(=O)c1C (stereo unspecified) | 960 | 63.4 | 3.23 | 48 | 0.116 | 48.2 | 5.52 | 416 | 2 | 111 | 0.26 | 546 | 28 | 0.68 |
| Cc1c(C(C#N)c2ccccc2F)nc(SC(C)C)[nH]c1=O (stereo unspecified) | 2030 | > 113 | 3.53 | 71 | 0.055 | 10.6 | 3.92 | 192 | 3 | 113 | 0.17 | >2051 | 64 | 0.099 |
| Cc1c(C(C#N)c2cc(Cl)cc(Cl)c2)nc(SC(C)C)[nH]c1=O (stereo unspecified) | 44 | > 28.9 | > 13.2 | 17 | 0.66 | > 28.9 | 11.4 | >44 | 6 | 28.9 | 4.22 | >44 | >20 | 0.479 |
| Cc1cc(C)cc(C(C#N)c2nc(SC(C)C)[nH]c(=O)c2C)c1 (stereo unspecified) | 2770 | 55.5 | 2.29 | 52 | 0.079 | 9.05 | 4.11 | 115 | 6 | 220 | 0.45 | 702 | 29 | 0.226 |
| Cc1c(C(C#N)c2ccc(F)cc2)nc(SC(C)C)[nH]c1=O (stereo unspecified) | 28 | > 113 | 63.5 | >28 | 3.98 | > 113 | > 113 | >28 | 3 | 113 | 12.6 | >28 | 16 | 14.3 |
| Cc1c(C(C#N)c2cc(F)cc(F)c2)nc(SC(C)C)[nH]c1=O (stereo unspecified) | 394 | > 202 | 18.5 | 17 | 0.51 | 51.5 | 8.7 | 101 | 4 | 202 | 1.91 | >396 | 36 | 1.29 |
| Cc1c(C(C#N)c2ccccc2C(F)(F)F)nc(SC(C)C)[nH]c1=O (stereo unspecified) | 96 | > 251 | 5.92 | 4 | 2.61 | > 67.6 | 10.1 | >26 | 1 | 251 | 3.34 | >96 | 2 | 5.99 |

Reference: ChEMBL document CHEMBL5137044, “Expansion of the S-CN-DABO scaffold to exploit the impact on inhibitory activities against the non-nucleoside HIV-1 reverse transcriptase” (Eur J Med Chem, 2022)
